Patent US11746124B2, “Chemoselective thiol-conjugation with alkene or alkyne-phosphonamidates” (FORSCHUNGSVERBUND BERLIN E.V., priority 2016, dated 2023)

Legend:
[1] = Second order rate constant of glutathione addition to EDANS phosphonamidate, fluorescence HPLC; settings: 0.1 mM amidate, 0.1 mM glutathione, 50 mM NH4HCO3, 1 mM EDTA, pH 8.5, 1% DMF
Experimental: To study the kinetics of the thiol addition to alkyne-phosphonamidates at low concentrations, a fluorescent EDANS-based phosphonamidate was synthesized as described in chapter 1.1. Addition of glutathione as a model substrate was probed over time by fluorescence HPLC. Peak integration and normalization to unconjugated EDANS as an internal standard was applied to determine the second order rate constant of the reaction. A second order rate constant of 37.32±0.41 I/mol*s was measured.
Glutathione addition to the EDANS-phosphonamidate was conducted at a final concentration of 0.1 mM amidate, 0.1 mM glutathione and 0.02 mM EDANS as an internal standard in 50 mM NH4HCO3-buffer containing 1 mM EDTA at pH 8.5 with 1% DMF. 2.5 μl of a 20 mM stock solution of EDANS-phosphonamidate in DMF was premixed with 488 μl buffer and 5 μl of a 2 mM stock solution of EDANS in a 1:1 mixture of DMF and buffer. The reaction was started by the addition of 5 μl of a 10 mM solution of glutathione in buffer. 10 μl samples were drawn at 0, 15, 30, 60, 120, 240 and 480 minutes and acidified with 190 μl 10 mM NaOAc-Buffer (pH 5.0) and subjected to fluorescence HPLC analysis.

[2] = Stability of a vinyl phosphonamidate to different pHs by 31P-NMR in aqueous buffers; assay type: physicochemical; settings: room temperature
Text: In a first experiment, Ethyl-N-phenyl-P-vinyl-phosphonamidate was chosen to measure stability.

[3] = Hydrolytic decay of the GSH-phosphonamidate conjugate in aqueous buffer, 31P NMR over 24 hours; assay type: physicochemical
Experimental: The conjugate could be isolated by semipreparative HPLC under basic conditions as a diastereomeric mixture in a yield of 61%. Having reasonable quantities of this water soluble phosphonamidate-conjugate in hand, studies could be performed in order to determine the hydrolytic properties of the phosphorus-nitrogen bond. For these studies a […] in aqeuous buffer was prepared and the hydrolysis of the phosphonamidate was characterized by monitoring the decay of the conjugate against the standard by means of ^31P NMR over 24 hours.

[4] = Rate of glutathione addition to ethyl-N-phenyl alkynyl phosphonamidate, HPLC-UV; settings: reaction with glutathione, after 15 min at pH 8.5
Experimental: The rate of the reaction was determined by HPLC. Glutathione was added to a solution of ethyl-N-phenyl alkynyl phosphonamidate in aqueous buffer at slightly basic pH. The reaction was stopped after several time points by the addition of an acidic buffer and analyzed by HPLC-UV, referring to inosine as an internal standard. FIG. 2 refers to the consumption of ethyl-N-phenyl alkynyl phosphonamidate in the reaction with glutathione at pH 8.5. HPLC UV traces were taken at different time points. Experiment was performed in triplicate.

In the case of `C#CP(=O)(Nc1ccc(C(=O)NCCNc2cccc3c(S(=O)(=O)O)cccc23)cc1)OCC` (stereo not drawn) [EDANS-based phosphonamidate, 5-((2-(O-Ethyl-P-ethynyl-phosphonamidato-N-benzoyl)ethyl)amino)naphthalene-1-sulfonic acid], the “second order rate constant of the thiol addition” value [1] is reported as 37.32±0.41 I/mol*s.

In the case of `C=CP(=O)(Nc1ccccc1)OCC` (stereo not drawn) [Ethyl-N-phenyl-P-vinyl-phosphonamidate], the “stability to different pHs over time” value ([2]; aqueous buffers) is reported as “stable over a broad pH range” and the “stability under strong acidic conditions” value ([2]; strong acidic conditions) is reported as “P—N-bond cleavage occurred”.

In the case of `CCOP(=O)(/C=C\SC[C@H](NC(=O)CC[C@H](N)C(=O)O)C(=O)NCC(=O)O)Nc1ccccc1` (stereo partly drawn) [GSH-phosphonamidate conjugate, (Ethyl-N-phenyl-P-ethenyl-phosphonamidate)-S-glutathion conjugate], the “hydrolytic decay of the conjugate” value ([3]; slight acidic conditions, 150 mM NH4OAc-buffer, pH 4.76) is reported as “stable over the duration of the measurement” and the “hydrolytic decay of the conjugate” value ([3]; strong acidic conditions, 1 M HCL, pH 0.36) is reported as “rapid decomposition”.

With `C#CP(=O)(Nc1ccccc1)OCC` (stereo not drawn) [alkynyl phosphonamidate, Ethyl-N-phenyl-P-ethynyl-phosphonamidate] the “conversion of the alkynyl phosphonamidate starting material” value [4] was “more than 95%”.
